Results from EP1514922A1 (priority 2003, dated 2005).

Experiments:
[1] = molecular target: YFP double mutant YFP-H148Q/V163S (Aequorea victoria, UniProt P42212, H148Q/H231L/S65G/S72A/T203Y/V163S/V68L); conditions: physiological pH (7,35); cited from earlier work
[2] = molecular target: YFP double mutant YFP-H148Q/I152L (Aequorea victoria, UniProt P42212, H148Q/H231L/I152L/S65G/S72A/T203Y/V68L); conditions: cited from earlier work
[3] = tested on: chloride sensor (ECFP - peptide linker - EYFP with mutations I152L, V163S, H148Q; SEQ ID No. 5); assay: Calibration of chloride sensor emission ratio R=F527/F485 in patch-pipette dialysed cells; format: cell-based; conditions: in HEK293 and BOSC23 cells; Rmax = 2,39, Rmin = 0,49
Method: The chloride sensor was expressed in human kidney derived cell lines (HEK293 and BOSC23) using a calcium phosphate transfection procedure.
Measurements of fluorescence are likely to reflect the average [Cl-] in the intracellular compartment.
The ratio (R) of fluorescence emission of the EYFP acceptor to that of the ECFP donor is R=F527/F485.
To calibrate the fluorescence of chloride sensor within these cells, R is measured while using a patch pipette to manipulate the cytoplasmic concentration of anions. A nominally Cl- free solution containing 150 mM gluconate is used to determine the maximal emission ratio for the chloride sensor (Rmax), whereas a solution containing a saturating concentration (150mM) of Cl- defines the minimal emission ratio (Rmin). The relationship between R and intermediates values of [Cl-] is then determined. This relationship could be described as : [Cl-]= K'd (Rmax - R)/(R - Rmin), [formula] with Rmax = 2,39, Rmin = 0,49 and K'd = 87mM. this calibration curve can then be used to convert R values measured in intracellular compartment of living cells into [Cl-].

Substance: chloride [Cl^-]
- Kd [1]: 39 mM
- binding kinetics (τ) [1]: 1900 ms
- Kd [2]: 85 mM
- binding kinetics (τ) [2]: 52 ms
- Kd [3]: 87 mM
